Values after ≈ are worked out from the molar mass of the structure shown.
Experiments:
[1] = target: T1, PXR (NR1I2) (Homo sapiens, UniProt O75469); experiment: […] at PXR LBD (unknown origin) expressed in HEK293 cells […] at 1 uM after 16 hrs by luciferase reporter gene assay relative to rifampicin; assay type: ADME, cell-based; conditions: HEK293 cells expressing PXR LBD, read-out: Efficacy
T1 sequence (O75469 whole entry): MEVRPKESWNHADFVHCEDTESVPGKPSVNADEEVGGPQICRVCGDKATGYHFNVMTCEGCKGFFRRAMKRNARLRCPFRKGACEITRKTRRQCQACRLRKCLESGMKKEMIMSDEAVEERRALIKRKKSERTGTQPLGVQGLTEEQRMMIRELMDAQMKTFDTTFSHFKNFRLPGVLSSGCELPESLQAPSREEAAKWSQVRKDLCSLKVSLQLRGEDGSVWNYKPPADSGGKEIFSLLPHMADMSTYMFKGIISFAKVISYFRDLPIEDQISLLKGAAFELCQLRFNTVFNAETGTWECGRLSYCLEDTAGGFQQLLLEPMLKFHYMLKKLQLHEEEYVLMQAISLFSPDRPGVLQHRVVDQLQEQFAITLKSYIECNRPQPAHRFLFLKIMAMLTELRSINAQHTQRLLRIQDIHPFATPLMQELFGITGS

[2] = Thermodynamic solubility of the compound in 30 mM phosphate buffer at 10 mM at pH 7 after 2 to 5 days by UV-HPLC analysis; assay type: physicochemical; conditions: read-out: Therm_solubility
[3] = Thermodynamic solubility of the compound in fasted state simulated intestinal […] after 2 to 5 days by UV-HPLC analysis; assay type: physicochemical; conditions: read-out: Therm_solubility
[4] = target: T1, PXR (NR1I2); experiment: […] at PXR LBD (unknown origin) expressed in HEK293 cells […] at 10 uM after 16 hrs by luciferase reporter gene assay relative to rifampicin; assay type: ADME, cell-based; conditions: HEK293 cells expressing PXR LBD, read-out: Efficacy
[5] = Half life in rat microsomes; assay type: ADME, Microsome
[6] = Half life in human microsomes; assay type: ADME, Microsome
[7] = target: T2, Cytochrome P450 1A2 (Homo sapiens, UniProt P05177); experiment: Inhibition of CYP1A2 (unknown origin); assay type: ADME
T2 sequence (P05177 whole entry): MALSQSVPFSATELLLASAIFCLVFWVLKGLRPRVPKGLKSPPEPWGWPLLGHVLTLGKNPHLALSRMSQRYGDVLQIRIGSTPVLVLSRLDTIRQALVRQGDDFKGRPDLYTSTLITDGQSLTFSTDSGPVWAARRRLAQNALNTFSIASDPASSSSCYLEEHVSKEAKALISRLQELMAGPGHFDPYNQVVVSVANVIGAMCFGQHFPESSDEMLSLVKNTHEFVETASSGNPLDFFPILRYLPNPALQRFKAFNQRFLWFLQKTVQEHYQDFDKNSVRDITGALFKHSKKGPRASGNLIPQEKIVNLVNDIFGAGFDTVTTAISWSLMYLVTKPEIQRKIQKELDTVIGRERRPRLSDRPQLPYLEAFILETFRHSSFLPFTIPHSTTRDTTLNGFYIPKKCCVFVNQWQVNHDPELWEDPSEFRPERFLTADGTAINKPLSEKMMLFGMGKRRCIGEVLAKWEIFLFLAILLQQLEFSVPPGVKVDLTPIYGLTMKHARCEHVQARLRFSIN

[8] = target: Cytochrome P450 2C19 (Homo sapiens, UniProt P33261); experiment: Inhibition of CYP2C19 (unknown origin); assay type: ADME
[9] = target: T3, Cytochrome P450 2C8 (Homo sapiens, UniProt P10632); experiment: Inhibition of CYP2C8 (unknown origin); assay type: ADME
T3 sequence (P10632 whole entry): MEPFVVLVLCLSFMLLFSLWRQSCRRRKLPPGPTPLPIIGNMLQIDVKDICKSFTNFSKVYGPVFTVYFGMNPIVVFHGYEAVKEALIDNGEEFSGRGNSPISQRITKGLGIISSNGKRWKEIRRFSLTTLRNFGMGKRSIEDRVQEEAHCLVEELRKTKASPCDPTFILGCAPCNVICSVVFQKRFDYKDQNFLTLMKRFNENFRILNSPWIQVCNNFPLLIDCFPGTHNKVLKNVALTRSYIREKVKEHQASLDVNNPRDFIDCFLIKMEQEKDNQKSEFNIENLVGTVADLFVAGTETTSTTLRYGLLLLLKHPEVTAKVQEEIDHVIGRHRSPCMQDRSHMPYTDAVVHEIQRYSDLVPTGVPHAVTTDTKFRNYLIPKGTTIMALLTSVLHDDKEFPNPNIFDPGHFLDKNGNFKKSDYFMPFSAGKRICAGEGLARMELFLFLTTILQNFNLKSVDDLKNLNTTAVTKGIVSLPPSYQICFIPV

[10] = target: Cytochrome P450 2C9 (Homo sapiens, UniProt P11712); experiment: Inhibition of CYP2C9 (unknown origin); assay type: ADME
[11] = target: Cytochrome P450 2D6 (Homo sapiens, UniProt P10635); experiment: Inhibition of CYP2D6 (unknown origin); assay type: ADME
[12] = target: Cytochrome P450 3A4 (Homo sapiens, UniProt P08684); experiment: Inhibition of CYP3A4 (unknown origin); assay type: ADME
[13] = Volume of distribution at steady state in Sprague-Dawley rat at 0.5 mg/kg, iv; assay type: ADME, organism-based; conditions: in vivo, read-out: Vdss
[14] = system: Rattus norvegicus; experiment: (§1) AUC (0 to infinity) in Sprague-Dawley rat at 0.5 mg/kg, iv; assay type: ADME, organism-based; design: dose 0.5 mg/kg, route intravenous, time infinity; conditions: in vivo
[15] = Initial plasma concentration in Sprague-Dawley rat at 0.5 mg/kg, iv; assay type: ADME, organism-based
[16] = Half life in Sprague-Dawley rat at 0.5 mg/kg, iv; assay type: ADME, organism-based; conditions: in vivo
[17] = Cmax in Sprague-Dawley rat at 2.5 mg/kg, po; assay type: ADME, organism-based; design: dose 2.5 mg/kg, route oral; conditions: in vivo
[18] = Tmax in Sprague-Dawley rat at 2.5 mg/kg, po; assay type: ADME, organism-based; conditions: in vivo
[19] = AUC (0 to infinity) in Sprague-Dawley rat at 2.5 mg/kg, po; assay type: ADME, organism-based; design: dose 2.5 mg/kg, time infinity, route oral; conditions: in vivo
[20] = Terminal half life in Sprague-Dawley rat at 2.5 mg/kg, po; assay type: ADME, organism-based; conditions: in vivo, read-out: beta t1/2 (converted)
[21] = Oral bioavailability in Sprague-Dawley rat at 2.5 mg/kg; assay type: ADME, organism-based; conditions: in vivo
[22] = Clearance in Sprague-Dawley rat at 0.5 mg/kg, iv; assay type: ADME, organism-based; conditions: in vivo
[23] = as §1; assay type: ADME, organism-based; design: dose 0.5 mg/kg, route intravenous, time infinity; conditions: Sprague-Dawley, in vivo
[24] = target: Voltage-gated inwardly rectifying potassium channel KCNH2 (Homo sapiens, UniProt Q12809); experiment: Inhibition of human ERG
[25] = Glutathione reactivity assessed as GSH adduct formation; assay type: physicochemical

Cytochrome P450 2C9, sequence (P11712 whole entry): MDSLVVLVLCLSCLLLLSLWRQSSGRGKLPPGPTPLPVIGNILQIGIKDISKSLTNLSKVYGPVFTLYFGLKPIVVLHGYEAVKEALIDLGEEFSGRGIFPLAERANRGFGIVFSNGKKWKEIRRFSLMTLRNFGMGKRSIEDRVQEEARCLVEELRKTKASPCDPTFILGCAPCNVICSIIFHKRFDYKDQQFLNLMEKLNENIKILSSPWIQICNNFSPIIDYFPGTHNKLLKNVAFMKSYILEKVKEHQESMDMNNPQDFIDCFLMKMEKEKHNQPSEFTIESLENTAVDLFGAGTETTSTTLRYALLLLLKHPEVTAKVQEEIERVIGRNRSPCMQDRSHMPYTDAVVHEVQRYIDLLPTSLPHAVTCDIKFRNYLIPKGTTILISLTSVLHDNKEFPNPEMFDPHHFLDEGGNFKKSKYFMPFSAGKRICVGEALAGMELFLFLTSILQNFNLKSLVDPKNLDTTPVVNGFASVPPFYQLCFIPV
Cytochrome P450 2C19, sequence (P33261 whole entry): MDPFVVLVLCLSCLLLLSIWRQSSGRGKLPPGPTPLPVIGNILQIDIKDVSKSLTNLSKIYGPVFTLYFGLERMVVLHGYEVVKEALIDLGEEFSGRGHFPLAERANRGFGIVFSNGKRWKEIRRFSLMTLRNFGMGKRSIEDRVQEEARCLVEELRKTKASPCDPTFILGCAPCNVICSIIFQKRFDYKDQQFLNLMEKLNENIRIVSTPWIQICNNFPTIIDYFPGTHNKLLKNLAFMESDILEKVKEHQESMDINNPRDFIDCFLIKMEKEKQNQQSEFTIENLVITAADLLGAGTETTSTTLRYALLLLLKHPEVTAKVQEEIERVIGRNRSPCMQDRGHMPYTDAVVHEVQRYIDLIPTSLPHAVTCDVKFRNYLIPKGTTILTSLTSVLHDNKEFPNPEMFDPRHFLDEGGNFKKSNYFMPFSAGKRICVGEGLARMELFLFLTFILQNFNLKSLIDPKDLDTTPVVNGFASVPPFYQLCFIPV
Cytochrome P450 2D6, sequence (P10635 whole entry): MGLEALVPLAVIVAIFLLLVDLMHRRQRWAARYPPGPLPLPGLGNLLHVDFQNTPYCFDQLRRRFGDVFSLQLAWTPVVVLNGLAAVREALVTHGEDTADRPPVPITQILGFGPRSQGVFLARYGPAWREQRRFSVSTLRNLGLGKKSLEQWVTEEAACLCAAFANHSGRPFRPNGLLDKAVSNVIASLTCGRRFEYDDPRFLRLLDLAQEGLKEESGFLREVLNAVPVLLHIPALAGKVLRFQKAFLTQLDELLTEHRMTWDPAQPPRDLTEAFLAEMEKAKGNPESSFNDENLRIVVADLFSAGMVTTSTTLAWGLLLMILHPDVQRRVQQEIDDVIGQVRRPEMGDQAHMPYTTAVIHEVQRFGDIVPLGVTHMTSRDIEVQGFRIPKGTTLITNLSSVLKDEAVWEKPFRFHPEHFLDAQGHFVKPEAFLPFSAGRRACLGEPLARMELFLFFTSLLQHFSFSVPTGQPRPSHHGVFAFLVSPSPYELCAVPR
Cytochrome P450 3A4, sequence (P08684 whole entry): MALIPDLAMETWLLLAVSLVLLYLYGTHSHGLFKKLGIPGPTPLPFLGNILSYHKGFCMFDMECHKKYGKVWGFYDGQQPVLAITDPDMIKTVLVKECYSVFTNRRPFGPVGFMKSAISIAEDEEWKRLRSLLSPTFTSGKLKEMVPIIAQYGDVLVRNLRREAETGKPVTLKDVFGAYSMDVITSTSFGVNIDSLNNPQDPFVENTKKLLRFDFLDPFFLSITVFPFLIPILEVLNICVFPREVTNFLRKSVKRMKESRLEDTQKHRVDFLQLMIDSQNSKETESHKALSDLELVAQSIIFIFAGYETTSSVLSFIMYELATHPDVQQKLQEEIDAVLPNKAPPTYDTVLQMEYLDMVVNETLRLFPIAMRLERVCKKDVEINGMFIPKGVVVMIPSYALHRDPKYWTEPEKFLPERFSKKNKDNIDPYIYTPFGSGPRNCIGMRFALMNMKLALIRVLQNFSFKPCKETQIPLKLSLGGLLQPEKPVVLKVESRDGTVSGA
Voltage-gated inwardly rectifying potassium channel KCNH2, sequence (Q12809 whole entry): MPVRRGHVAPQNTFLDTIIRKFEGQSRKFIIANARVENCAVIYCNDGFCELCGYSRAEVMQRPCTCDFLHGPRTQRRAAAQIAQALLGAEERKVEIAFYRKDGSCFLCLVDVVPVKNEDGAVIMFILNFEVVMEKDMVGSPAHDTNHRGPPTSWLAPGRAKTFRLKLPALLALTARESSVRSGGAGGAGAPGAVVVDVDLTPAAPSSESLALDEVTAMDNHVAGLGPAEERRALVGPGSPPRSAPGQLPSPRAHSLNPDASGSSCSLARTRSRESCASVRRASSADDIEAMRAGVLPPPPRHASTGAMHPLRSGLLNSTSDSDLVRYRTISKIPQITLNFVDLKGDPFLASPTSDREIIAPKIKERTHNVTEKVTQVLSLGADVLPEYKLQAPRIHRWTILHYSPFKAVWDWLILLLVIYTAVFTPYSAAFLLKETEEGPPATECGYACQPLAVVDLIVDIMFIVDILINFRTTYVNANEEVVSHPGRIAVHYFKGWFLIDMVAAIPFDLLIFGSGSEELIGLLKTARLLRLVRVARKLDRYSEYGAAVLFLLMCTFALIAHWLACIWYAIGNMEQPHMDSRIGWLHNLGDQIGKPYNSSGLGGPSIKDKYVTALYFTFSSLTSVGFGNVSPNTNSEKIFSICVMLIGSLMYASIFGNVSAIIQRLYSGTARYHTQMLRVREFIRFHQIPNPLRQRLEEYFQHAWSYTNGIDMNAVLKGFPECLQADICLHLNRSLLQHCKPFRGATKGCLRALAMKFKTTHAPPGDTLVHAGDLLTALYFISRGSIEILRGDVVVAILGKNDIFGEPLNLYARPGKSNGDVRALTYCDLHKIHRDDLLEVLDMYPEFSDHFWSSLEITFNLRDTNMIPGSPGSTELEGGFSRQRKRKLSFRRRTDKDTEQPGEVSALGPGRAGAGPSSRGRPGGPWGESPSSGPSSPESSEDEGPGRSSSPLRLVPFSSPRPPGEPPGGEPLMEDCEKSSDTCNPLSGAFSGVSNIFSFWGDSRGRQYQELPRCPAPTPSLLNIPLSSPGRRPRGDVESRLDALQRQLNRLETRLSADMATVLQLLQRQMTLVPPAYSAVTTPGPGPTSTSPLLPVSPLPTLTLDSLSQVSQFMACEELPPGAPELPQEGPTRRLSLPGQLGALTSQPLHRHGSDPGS

Row | SMILES | Emax at 16 h, 1 µM [1] [%] | solubility thermodynamic at 10000 µM [2] [µM] | solubility thermodynamic [3] [µM] | Emax at 16 h, 10 µM [4] [%] | half-life [5] [min] | half-life [6] [min] | INH [7] [µM] | INH [8] [µM] | INH [9] [µM] | INH [10] [µM] | INH [11] [µM] | INH [12] [µM] | Vd [13] [L/kg] | C0 [15] [ng/mL] | half-life [16] [min] | Cmax [17] [ng/mL] | Tmax [18] [min] | AUC(0-inf) [19] [ng·h/mL] | half-life [20] [min] | bioavailability [21] [%] | also measured
1 | CC(C)(C)NS(=O)(=O)c1ncc(-c2sc(C(=O)N[C@H]3C[C@H](C(=O)O)C3)nc2CC2CCCCC2)c2ccccc12 | 18 | 13 (≈ 7.6 µg/mL) | 382 (≈ 223 µg/mL) | 102 | 61 | 77 | > 10 | > 10 | > 10 | > 10 | > 10 | > 10 | 1.1 | 2800 | 18 | 52 | 24 | 87 | 150 | 7.5 | AUC [14]: 232 ng·h/mL
2 | CC(C)(C)NS(=O)(=O)c1ccc(-c2sc(C(=O)NCCN3CCOCC3)nc2CC2CCCCC2)c2ccccc12 | – | < 4 | – | – | 5.1 | < 4 | > 10 | 1.1 | 2.8 | 0.4 | 6.2 | 7.1 | – | – | – | – | – | – | – | – | inhibition (INH) [24]: Not Active
3 | C[C@H](NS(=O)(=O)c1ccc(-c2sc(C(=O)N[C@H]3C[C@H](C(=O)O)C3)nc2CC2CCCCC2)c2ccccc12)C(F)(F)F | – | – | – | – | – | – | – | – | – | – | – | – | – | – | – | – | – | – | – | – | Stability [25]: Stable

The next lines start with results.

Row | Emax at 16 h, 1 µM [1] [%] | solubility thermodynamic at 10000 µM [2] [µM] | solubility thermodynamic [3] [µM] | Emax at 16 h, 10 µM [4] [%] | half-life [5] [min] | half-life [6] [min] | INH [7] [µM] | INH [8] [µM] | INH [9] [µM] | INH [10] [µM] | INH [11] [µM] | INH [12] [µM] | Vd [13] [L/kg] | C0 [15] [ng/mL] | half-life [16] [min] | Cmax [17] [ng/mL] | Tmax [18] [min] | AUC(0-inf) [19] [ng·h/mL] | half-life [20] [min] | bioavailability [21] [%] | SMILES | also measured
4 | 21 | < 1 | 59 (≈ 35.2 µg/mL) | 34 | 44 | 27 | > 10 | > 10 | 1.8 | 3.2 | > 10 | > 10 | 2.1 | 1410 | 24 | 52 | 48 | 142 | 186 | 18 | CCC(C)(C)NS(=O)(=O)c1ccc(-c2sc(C(=O)N[C@H]3C[C@H](C(=O)O)C3)nc2CC2CCCCC2)c(Cl)c1C | clearance [22]: 98.8 mL/min/kg; AUC(0-inf) [23]: 170 ng·h/mL
5 | 139 | < 1 | < 4 | 160 | 55 | 18 | > 10 | > 10 | > 10 | 1.6 | > 10 | > 10 | 4.8 | 518 | 90 | 269 | 60 | 1580 | 180 | 87.7 | CC(C)(C)NS(=O)(=O)c1ccc(-c2sc(C(=O)N3CC4(C3)CS(=O)(=O)C4)nc2CC2CCCCC2)c(Cl)c1Cl | clearance [22]: 42.5 mL/min/kg; AUC(0-inf) [23]: 360 ng·h/mL

Reference: ChEMBL document CHEMBL4118122, “Identification and biological evaluation of thiazole-based inverse agonists of RORγt” (Bioorg Med Chem Lett, 2018)
